Holding throughout (assay type): in vivo, rat (Lewis male)
Assay [1] relates to phalanges of one hind limb (algesic response). Briefly: phalanges algesic assay (strong analgesia). As to conditions: p.o. gavage to fasted rats, mechanical force clamp one hour later, 3 seconds maximum; for ED50: Rattus norvegicus, po, 1 h, read-out: p.o. ED50 (strong analgesia, 50% inhibition of latency response). As for the experimental part: The rats used in these studies were Lewis male weighing 160-180 g and assigned to groups of 5-6 animals. The phalanges algesic assay is an algesic test (no hyperalgesia). Test compounds were given to fasted rats by oral gavage. One hour later an F-shaped mechanical force clamp was applied to the phalanges of one hind limb which initiated an algesic response (vocalisation or flight). Latency (seconds) to the algesic response was determined with 3 seconds maximum allowed time. ED50 values were estimated by linear regression analysis and represent the dose at which a given compound extended the latency response to produce 50% inhibition using the formula:
(3 sec.-Control Latency)-(3 sec.-Test Latency)/3 sec.-Control

Assay [2] concerns rat pleura (carrageenan-induced cell accumulation and edema formation). Briefly: modification of the standard carrageenan pleurisy assay (anti-inflammatory activity). As to conditions: po, p.o. gavage to fasted rats 0.5 hr prior to intrapleural 50 μg carrageenan, exudate after 4 hr. As for the experimental part:
The rats used in these experiments were Lewis males, weighing 160-180 g, assigned to groups consisting of 5 animals. Test compounds were given to fasted rats by oral gavage 0.5 hr prior to intrapleural injection of 50 μg carrageenan. After 4 hr, the pleural exudate was collected and the edema volume and cell number were determined. ED50 values were estimated by linear regression analysis, and represent the doses at which a given drug produced 50% inhibition of carrageenan-induced cell accumulation and edema formation within the rat pleura.

The subject of assay [3] is rat hind limb (trypsin-induced hyperalgesia). Put plainly: modification of the trypsin-induced rat hind limb hyperalgesic assay (mild analgesia). As to conditions: po, 1 h, p.o. gavage to fasted rats 0.5 hours prior to subplantar 250 μg trypsin, evaluated one hour later, 4 seconds maximum latency, read-out: p.o. ED50 (mild analgesia, 50% inhibition of latency response). The method, then: The rats used in these studies were Lewis male, weighing 160-180 g. and assigned to groups consisting of 5-6 animals. Test compounds were given to fasted rats by oral gavage 0.5 hours prior to the subplantar injection of 250 μg trypsin in one hind limb. One hour later the rats were evaluated for hyperalgesia using a F-shaped mechanical force clamp on the injected hind limb metatarsal area. Latency (seconds) to the algesic response (vocalisation or flight) was determined, with 4 seconds being the maximum latency allowed. ED50 values were estimated by linear regression analysis and represent the dose at which a given drug extended the latency response to produce 50% inhibition using the formula:
(4 sec.-Control Latency)-(4 sec.-Test Latency)/4 sec.--Control

[4] abbreviates: read-out: p.o. ED50, Cells (50% inhibition of carrageenan-induced cell accumulation).
[5] abbreviates: read-out: p.o. ED50, Edema (50% inhibition of edema formation).

Molecules are shown by their SMILES. Like-named read-outs stand apart in the source and are kept apart here. Where only a bound is given, the exact number is not on record here.

Take `NC(=O)/C=C1\CCc2c(Cl)cc(Cl)cc21` [Example 3, (E)-2-(4,6-Dichloro-1-indanylidene)acetamide]: the ED50 was above 45 mg/kg in assay [1], 25 mg/kg in assay [2] (setting [4]), 20 mg/kg in assay [2] (setting [5]) and 4 mg/kg in assay [3].
Take `Cc1cc(Cl)c2c(c1)/C(=C/C(N)=O)CC2` [Example 8, (E)-2-(4-Chloro-6-methyl-1-indanylidene)acetamide]: the “p.o. ED50 (strong analgesia, 50% inhibition of latency response)” value in assay [1] is on record as “Inactive at 45”. Further, the ED50 in assay [2] (setting [4]) and in assay [2] (setting [5]) was above 25 mg/kg throughout.
As to `CNC(=O)/C=C1\CCc2c(Cl)cc(F)cc21` [Example 1, (E)-2-(4-Chloro-6-fluoro-1-indanylidene)-N-Methylacetamide], the 50% effective dose (ED50) in assay [1] worked out at 60 mg/kg; in assay [2] (setting [4]), 8 mg/kg; in assay [2] (setting [5]), 5 mg/kg; in assay [3], 2 mg/kg.
For `NC(=O)/C=C1\CCc2c(F)cc(Cl)cc21` [Example 6, (E)-2-(6-Chloro-4-Fluoro-1-indanylidene)acetamide], in that order: above 45 mg/kg, above 25 mg/kg, above 25 mg/kg and above 10 mg/kg.
Taken in the same sequence, the figures for `NC(=O)/C=C1\CCc2c(Cl)cc(F)cc21` [Example 2, (E)-2-(4-Chloro-6-fluoro-1-indanylidene)acetamide] were 30 mg/kg, 11 mg/kg, 11 mg/kg and 4 mg/kg.
Regarding `NC(=O)/C=C1\CCc2c(Br)cc(F)cc21` [Example 7, (E)-2-(4-Bromo-6-Fluoro-1-indanylidene)acetamide], the ED50 in assay [1] was above 45 mg/kg; in assay [2] (setting [4]), above 20 mg/kg; in assay [2] (setting [5]), above 20 mg/kg.

For the origin of these results see patent US5708033A, “Amide derivatives and their therapeutic use” (Glaxo Wellcome Inc., priority 1994, dated 1998).
